Data from PubChem BioAssay AID1919009 (Molecular Pharmacology Branch, DTP, NCI, 2023).

System: K24384-001-R-PDC complex spheroid growth
Test: Anticancer human tumor K24384-001-R-PDC patient-derived pancreatic adenocarcinoma cell line growth inhibition [AhR]
Conditions: for IC50: curve of first compound; for viability, T/C: stronger effect = lower value; active = viability on the fitted dose curve at most 10% of control; inactive = the rest
Outline: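 Complex tumor spheroids co-cultured with HUVEC and human MSC stroma; AhR antagonists tested in combination with standard-of-care and investigational agents. Top concentration at or near clinical Cmax (else 10 microM), half-log dilutions; growth expressed as percent test/control.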

[1] = second compound 0.1 µM, first compound 0.000949 µM
[2] = second compound 0.1 µM, first compound 0.003 µM
[3] = second compound 0.1 µM, first compound 0.00949 µM
[4] = second compound 0.1 µM, first compound 0.03 µM
[5] = second compound 0.1 µM, first compound 0.0949 µM
[6] = second compound 0.1 µM, first compound 0.3 µM
[7] = second compound 0.316 µM, first compound 0.000949 µM
[8] = second compound 0.316 µM, first compound 0.003 µM
[9] = second compound 0.316 µM, first compound 0.00949 µM
[10] = second compound 0.316 µM, first compound 0.03 µM
[11] = second compound 0.316 µM, first compound 0.0949 µM
[12] = second compound 0.316 µM, first compound 0.3 µM
[13] = second compound 1 µM, first compound 0.000949 µM
[14] = second compound 1 µM, first compound 0.003 µM
[15] = second compound 1 µM, first compound 0.00949 µM
[16] = second compound 1 µM, first compound 0.03 µM
[17] = second compound 1 µM, first compound 0.0949 µM
[18] = second compound 1 µM, first compound 0.3 µM
[19] = second compound 3.16 µM, first compound 0.000949 µM
[20] = second compound 3.16 µM, first compound 0.003 µM
[21] = second compound 3.16 µM, first compound 0.00949 µM
[22] = second compound 3.16 µM, first compound 0.03 µM
[23] = second compound 3.16 µM, first compound 0.0949 µM
[24] = second compound 3.16 µM, first compound 0.3 µM
[25] = second compound 10 µM, first compound 0.000949 µM
[26] = second compound 10 µM, first compound 0.003 µM
[27] = second compound 10 µM, first compound 0.00949 µM
[28] = second compound 10 µM, first compound 0.03 µM
[29] = second compound 10 µM, first compound 0.0949 µM
[30] = second compound 10 µM, first compound 0.3 µM
[31] = second compound 0.1 µM, first compound 0.0316 µM
[32] = second compound 0.1 µM, first compound 0.1 µM
[33] = second compound 0.1 µM, first compound 0.316 µM
[34] = second compound 0.1 µM, first compound 1 µM
[35] = second compound 0.1 µM, first compound 3.16 µM
[36] = second compound 0.1 µM, first compound 10 µM
[37] = second compound 0.316 µM, first compound 0.0316 µM
[38] = second compound 0.316 µM, first compound 0.1 µM
[39] = second compound 0.316 µM, first compound 0.316 µM
[40] = second compound 0.316 µM, first compound 1 µM
[41] = second compound 0.316 µM, first compound 3.16 µM
[42] = second compound 0.316 µM, first compound 10 µM
[43] = second compound 1 µM, first compound 0.0316 µM
[44] = second compound 1 µM, first compound 0.1 µM
[45] = second compound 1 µM, first compound 0.316 µM
[46] = second compound 1 µM, first compound 1 µM
[47] = second compound 1 µM, first compound 3.16 µM
[48] = second compound 1 µM, first compound 10 µM
[49] = second compound 3.16 µM, first compound 0.0316 µM
[50] = second compound 3.16 µM, first compound 0.1 µM
[51] = second compound 3.16 µM, first compound 0.316 µM
[52] = second compound 3.16 µM, first compound 1 µM
[53] = second compound 3.16 µM, first compound 3.16 µM
[54] = second compound 3.16 µM, first compound 10 µM
[55] = second compound 10 µM, first compound 0.0316 µM
[56] = second compound 10 µM, first compound 0.1 µM
[57] = second compound 10 µM, first compound 0.316 µM
[58] = second compound 10 µM, first compound 1 µM
[59] = second compound 10 µM, first compound 3.16 µM
[60] = second compound 10 µM, first compound 10 µM
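For viability, T/C in this document: percent of DMSO vehicle-treated spheroid viability set as 100%.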

CC(C)CC(NC(=O)C(Cc1ccccc1)NC(=O)c1cnccn1)B(O)O (stereo not given) + Cc1cncc(-c2nc(NCCc3c[nH]c4ccccc34)c3ncn(C(C)C)c3n2)c1
7.07 nM: IC50 (second compound 3.16 µM)
< 0.949 nM: IC50 (second compound 10 µM)
11.2 nM: IC50 (second compound 0.316 µM)
7.54 nM: IC50 (second compound 0.1 µM)
inactive: viability, T/C [1] 112% | viability, T/C [2] 83.3% | viability, T/C [3] 46.1% | viability, T/C [7] 107% | viability, T/C [8] 95% | viability, T/C [9] 58.9% | viability, T/C [13] 116% | viability, T/C [14] 106% | viability, T/C [15] 56.6% | viability, T/C [19] 83.9% | viability, T/C [20] 97% | viability, T/C [21] 36.1% | viability, T/C [25] 21.9% | viability, T/C [26] 24.2% | viability, T/C [27] 12.7%
active: viability, T/C [4] 1.55% | viability, T/C [5] 0.43% | viability, T/C [6] 0.56% | viability, T/C [10] 1.17% | viability, T/C [11] 0.65% | viability, T/C [12] 0.45% | viability, T/C [16] 0.7% | viability, T/C [17] 0.26% | viability, T/C [18] 0.31% | viability, T/C [22] 0.65% | viability, T/C [23] 2.21% | viability, T/C [24] 0.22% | viability, T/C [28] 0.35% | viability, T/C [29] 1.63% | viability, T/C [30] 1.52%
10.7 nM: IC50 (second compound 1 µM)

CCc1c2c(nc3ccc(O)cc13)-c1cc3c(c(=O)n1C2)COC(=O)[C@]3(O)CC + Cc1cncc(-c2nc(NCCc3c[nH]c4ccccc34)c3ncn(C(C)C)c3n2)c1
active: viability, T/C [25] 5.03% | viability, T/C [26] 5.63% | viability, T/C [27] 6.51% | viability, T/C [28] 3.31% | viability, T/C [29] 4.86% | viability, T/C [30] 3.7%
inactive: viability, T/C [1] 67.3% | viability, T/C [2] 48.4% | viability, T/C [3] 33.4% | viability, T/C [4] 34.9% | viability, T/C [5] 28% | viability, T/C [6] 16.8% | viability, T/C [7] 68.9% | viability, T/C [8] 47.1% | viability, T/C [9] 37.6% | viability, T/C [10] 35.9% | viability, T/C [11] 23.9% | viability, T/C [12] 14% | viability, T/C [13] 76.9% | viability, T/C [14] 59.1% | viability, T/C [15] 41.5% | viability, T/C [16] 32% | viability, T/C [17] 26.4% | viability, T/C [18] 16.8% | viability, T/C [19] 60% | viability, T/C [20] 52.6% | viability, T/C [21] 49.2% | viability, T/C [22] 29.8% | viability, T/C [23] 21.7% | viability, T/C [24] 13.9%
< 0.949 nM: IC50 (second compound 10 µM)
6.01 nM: IC50 (second compound 3.16 µM)
2.95 nM: IC50 (second compound 0.1 µM)
5.67 nM: IC50 (second compound 1 µM)
3.6 nM: IC50 (second compound 0.316 µM)

COc1cc(Nc2ncc3c(n2)-c2ccc(Cl)cc2C(c2c(F)cccc2OC)=NC3)ccc1C(=O)O + Cc1cncc(-c2nc(NCCc3c[nH]c4ccccc34)c3ncn(C(C)C)c3n2)c1
10000 nM: IC50 (second compound 3.16 µM)
943 nM: IC50 (second compound 0.1 µM)
> 10000 nM: IC50 (second compound 1 µM)
< 31.6 nM: IC50 (second compound 10 µM)
inactive: viability, T/C [31] 81.9% | viability, T/C [32] 70.1% | viability, T/C [33] 69.6% | viability, T/C [34] 43.9% | viability, T/C [35] 53.1% | viability, T/C [36] 49.9% | viability, T/C [37] 95% | viability, T/C [38] 66.4% | viability, T/C [39] 68% | viability, T/C [40] 41.1% | viability, T/C [41] 53.4% | viability, T/C [42] 47.7% | viability, T/C [43] 85.3% | viability, T/C [44] 82.7% | viability, T/C [45] 75.2% | viability, T/C [46] 63% | viability, T/C [47] 50.3% | viability, T/C [48] 51.5% | viability, T/C [49] 80.5% | viability, T/C [50] 77.2% | viability, T/C [51] 72.8% | viability, T/C [52] 44.8% | viability, T/C [53] 58.6% | viability, T/C [54] 62.1% | viability, T/C [55] 11.1% | viability, T/C [56] 11.8% | viability, T/C [57] 10.3% | viability, T/C [58] 9.55% | viability, T/C [59] 9.44% | viability, T/C [60] 17%
2150 nM: IC50 (second compound 0.316 µM)

Nc1ccccc1NC(=O)c1ccc(CNC(=O)OCc2cccnc2)cc1 + Cc1cncc(-c2nc(NCCc3c[nH]c4ccccc34)c3ncn(C(C)C)c3n2)c1
951 nM: IC50 (second compound 3.16 µM)
1500 nM: IC50 (second compound 1 µM)
inactive: viability, T/C [31] 90% | viability, T/C [32] 86.7% | viability, T/C [33] 79.6% | viability, T/C [34] 69.3% | viability, T/C [35] 30.3% | viability, T/C [37] 111% | viability, T/C [38] 108% | viability, T/C [39] 77.7% | viability, T/C [40] 48.3% | viability, T/C [41] 31% | viability, T/C [43] 111% | viability, T/C [44] 99.8% | viability, T/C [45] 87% | viability, T/C [46] 56.6% | viability, T/C [47] 33.6% | viability, T/C [49] 77.6% | viability, T/C [50] 93.2% | viability, T/C [51] 61.9% | viability, T/C [52] 43% | viability, T/C [53] 33.1% | viability, T/C [55] 15.2% | viability, T/C [56] 10.7%
active: viability, T/C [36] 6.17% | viability, T/C [42] 3.5% | viability, T/C [48] 2.82% | viability, T/C [54] 1.51% | viability, T/C [57] 7.68% | viability, T/C [58] 5.34% | viability, T/C [59] 4.19% | viability, T/C [60] 0.39%
< 31.6 nM: IC50 (second compound 10 µM)
1740 nM: IC50 (second compound 0.1 µM)
1100 nM: IC50 (second compound 0.316 µM)

O=C(C=Cc1cccc(S(=O)(=O)Nc2ccccc2)c1)NO + Cc1cncc(-c2nc(NCCc3c[nH]c4ccccc34)c3ncn(C(C)C)c3n2)c1
2350 nM: IC50 (second compound 1 µM)
2110 nM: IC50 (second compound 0.316 µM)
2320 nM: IC50 (second compound 3.16 µM)
1840 nM: IC50 (second compound 0.1 µM)
< 31.6 nM: IC50 (second compound 10 µM)
active: viability, T/C [36] 4.88% | viability, T/C [42] 4.55% | viability, T/C [48] 5.39% | viability, T/C [54] 6.54% | viability, T/C [59] 10.3% | viability, T/C [60] 2.79%
inactive: viability, T/C [31] 107% | viability, T/C [32] 120% | viability, T/C [33] 108% | viability, T/C [34] 74.5% | viability, T/C [35] 28.2% | viability, T/C [37] 139% | viability, T/C [38] 138% | viability, T/C [39] 135% | viability, T/C [40] 87.9% | viability, T/C [41] 30.3% | viability, T/C [43] 129% | viability, T/C [44] 141% | viability, T/C [45] 145% | viability, T/C [46] 85.6% | viability, T/C [47] 41.1% | viability, T/C [49] 118% | viability, T/C [50] 118% | viability, T/C [51] 111% | viability, T/C [52] 75.2% | viability, T/C [53] 41.9% | viability, T/C [55] 28.9% | viability, T/C [56] 20.4% | viability, T/C [57] 17.7% | viability, T/C [58] 9.39%

O=C(c1cc(Cc2n[nH]c(=O)c3ccccc23)ccc1F)N1CCN(C(=O)C2CC2)CC1 + Cc1cncc(-c2nc(NCCc3c[nH]c4ccccc34)c3ncn(C(C)C)c3n2)c1
active: viability, T/C [60] 8.74%
< 31.6 nM: IC50 (second compound 10 µM)
> 10000 nM: IC50 (second compound 0.1 µM) | IC50 (second compound 0.316 µM) | IC50 (second compound 1 µM) | IC50 (second compound 3.16 µM)
inactive: viability, T/C [31] 128% | viability, T/C [32] 135% | viability, T/C [33] 140% | viability, T/C [34] 96.3% | viability, T/C [35] 78.5% | viability, T/C [36] 82.5% | viability, T/C [37] 155% | viability, T/C [38] 157% | viability, T/C [39] 143% | viability, T/C [40] 117% | viability, T/C [41] 106% | viability, T/C [42] 90.5% | viability, T/C [43] 137% | viability, T/C [44] 132% | viability, T/C [45] 142% | viability, T/C [46] 98.5% | viability, T/C [47] 128% | viability, T/C [48] 114% | viability, T/C [49] 106% | viability, T/C [50] 119% | viability, T/C [51] 135% | viability, T/C [52] 119% | viability, T/C [53] 119% | viability, T/C [54] 111% | viability, T/C [55] 17.7% | viability, T/C [56] 14% | viability, T/C [57] 13.2% | viability, T/C [58] 13.9% | viability, T/C [59] 10.4%
